{
  "source": "patent US20220308045A1",
  "about": "“EXPANDABLE LIVER ORGANOIDS, MEDIA COMPOSITION FOR DIFFERENTIATION THEREOF, AND METHOD FOR PRODUCING LIVER ORGANOIDS USING THE SAME” (KOREA RESEARCH INSTITUTE OF BIOSCIENCE AND BIOTECHNOLOGY, priority 2019, published 2022)",
  "key": {"[1]": {"test_system": "steatosis-induced liver organoids", "experiment": "Hepatic steatosis model: triglyceride concentration", "assay_type": "cell-based, human", "details": "added to FA, compared with BSA control or FA alone", "experimental": "For the analysis of triglyceride concentration, the steatosis-induced organoids were analyzed by using triglyceride assay kit (Abcam; ab65336) according to the manufacturer's instructions. The organoids were homogenized for 5 minutes using 1 mL of a 5% NP-40 solution under the condition of heated to 80 to 100° C. The pellets were diluted 10-fold with dilution water before starting the analysis. Absorbance was measured at 570 nm by using SpectraMax microplate reader.\n(§1) Meanwhile, in order to confirm the effect on the induction of hepatic steatosis, the organoids in the HM conditions were treated with BSA, FA, FA+etomoxir, FA+L-carnitine, and FA+metformin, respectively, and the results were compared."}, "[2]": {"test_system": "steatosis-induced liver organoids", "experiment": "Hepatic steatosis model: lipid droplets by bright field microscope and Nile red staining", "assay_type": "cell-based, human", "details": "added to FA (oleate and palmitate), compared with FA alone", "experimental": "The organoids in the HM conditions were seeded on a 24-well plate in order to be induced into liver organoids with steatosis. Three days after seeding, 0.5 mM oleate (Sigma; 07501) combined with 12% fatty acid-free BSA (Sigma; A8806) and 0.25 mM palmitate (Sigma; P9767) were added for 3 days, and images of accumulated lipid droplets were observed under a microscope. For Nile red staining, the samples were washed with PBS and fixed with 4% PFA at 4° C. overnight. The organoids were washed with PBS and treated with 10 μg/ml Nile red solution (Thermo Fisher; N1142) at room temperature for 5 minutes. Fluorescence images were taken with a confocal microscope.\nas §1"}, "[3]": {"details": "read-out: Cmax concentration; cited from earlier work"}, "in vitro": {"experiment": "in vitro", "details": "human", "experimental": "(§2) The 2D differentiated mature hepatocytes (2D MH) and organoids (HM) in the HM conditions were seeded in a 24-well plate. […] Three days after seeding, the drug was added daily for 6 days, and toxicity was evaluated by calculating the number of cells using Countess II FL (Life Technology). Then, the organoids were washed with PBS, and fluorescence images were taken with a confocal microscope. Relative intensity was measured using ZEN program (Zeiss) in the same region.\n(§3) Next, the effects of trovafloxacin (Sigma; PZ0015) and levofloxacin (Sigma; 28,266), which are structurally related antibiotics, on the 2D MH and the organoids in the HM conditions were compared."}, "[4]": {"test_system": "steatosis-induced liver organoids", "experiment": "Drug screening of autophagy library for suppressing lipid accumulation (Nile red)", "assay_type": "cell-based, human", "details": "10 μM during steatosis induction; top four of 151 chemical substances", "experimental": "For drug screening, the organoids were treated with 151 chemical substances at a concentration of 10 μM in the autophagy library (Selleckchem; At L2600) during the hepatic steatosis induction period. Then, the organoids were stained with Nile red and fluorescence images were analyzed with a confocal microscope."}, "[5]": {"test_system": "organoids in the HM conditions", "experiment": "in vitro", "details": "human, 6 days", "experimental": "as §2, §3"}, "CYP3A4": {"target": "CYP3A4 (Homo sapiens, UniProt P08684)", "sequence (P08684 whole entry)": "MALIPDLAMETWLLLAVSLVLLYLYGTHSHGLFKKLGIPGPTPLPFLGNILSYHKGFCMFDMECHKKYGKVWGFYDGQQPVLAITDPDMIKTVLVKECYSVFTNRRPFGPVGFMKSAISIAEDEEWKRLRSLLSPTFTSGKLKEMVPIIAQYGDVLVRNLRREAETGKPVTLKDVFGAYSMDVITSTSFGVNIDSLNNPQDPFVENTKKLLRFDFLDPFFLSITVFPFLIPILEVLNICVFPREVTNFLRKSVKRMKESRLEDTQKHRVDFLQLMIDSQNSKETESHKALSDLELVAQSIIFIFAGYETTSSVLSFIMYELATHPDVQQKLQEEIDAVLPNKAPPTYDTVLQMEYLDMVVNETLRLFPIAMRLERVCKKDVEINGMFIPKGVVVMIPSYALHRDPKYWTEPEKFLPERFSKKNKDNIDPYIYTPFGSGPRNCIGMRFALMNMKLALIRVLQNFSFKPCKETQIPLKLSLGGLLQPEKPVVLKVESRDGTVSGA", "experimental": "Aliquots (100 μL) were diluted with 2-fold volume of acetonitrile containing carbamazepine as an internal standard for sample analysis and transferred to a 96-well plate."}, "[6]": {"test_system": "organoids in the HM conditions", "experiment": "Oxygen consumption rate (OCR) for mitochondrial toxicity in liver organoids", "assay_type": "cell-based, human", "details": "0.8 μM and 4 μM, 6 days", "experimental": "(§4) Oxygen consumption rate (OCR) was measured for real-time monitoring of mitochondrial toxicity. Two days before the measurement, the organoids were seeded on XFe 96-well plate (Agilent; 102416-100). The probe cartridge was adjusted overnight in a non-C02 incubator at 37° C. On the assay day, the culture medium was removed and washed with warm assay medium (Agilent Seahorse XF base medium (102353-100) supplemented with 1 mM glutamine, 1 mM pyruvate and 17.5 mM glucose for OCR measurement), and the assay medium was added. The culture dish was placed in a non-CO2 incubator at 37° C. for 1 hour, and OCR was measured using Seahorse XFe96 Flux Analyzer according to the manufacturer's instructions.\n(§5) For OCR measurement, ATP synthesis inhibitors (1.5 μM oligomycin and ETC complex V inhibitor), uncoupler (1 μM FCCP), and complex I inhibitor (0.5 μM Rotenone) plus complex III inhibitor (0.5 μM antimycin A) were sequentially added at designated time points. The measured value was normalized to the number of surviving cells measured by Cell Counting Kit-8 (Dogindo; CK04-01)."}, "2D MH": {"test_system": "2D MH", "experiment": "Drug toxicity by number of cells after 6 days of treatment, 2D differentiated mature hepatocytes", "assay_type": "cell-based, human", "details": "0.8 μM and 4 μM", "experimental": "as §2, §3"}, "[7]": {"details": "patients; cited from earlier work"}, "[8]": {"test_system": "organoids in the HM conditions", "experiment": "APAP toxic damage, regeneration and inflammatory response of liver organoids", "assay_type": "cell-based, human", "experimental": "Time-lapsed images were taken at 37° C. under 5% CO2 at 30-minute intervals with an Olympus IX83 inverted microscope. The diameter of the organoid was measured using ImageJ program at the designated time point from the time lapsed image. Fluorescence images were taken with a confocal microscope. In addition, the organoids were cultured for 30 minutes with 7.5 μM dihydroethidium (Sigma; D7008) for detecting ROS, 30 μM monochlorobimane (Sigma; 69899) for measuring GSH content, and 2.5 μM Syto11 (Thermo Fisher; S7573) for staining nuclei.\nIn addition, the expressions of high-mobility group protein 1 (HMGB1), which is a protein involved in the detection of ROS and the inflammatory response of cells, ki67, which is a marker indicating cell proliferation, E-cadherin, which is an epithelial marker, LC3B, which is an autophagy marker, and Tom20, a mitochondrial marker, were analyzed at protein level according to the method described in Experimental Example 1."}, "[9]": {"test_system": "steatosis-induced liver organoids", "experiment": "Hepatic steatosis model: mitochondrial respiration measured by OCR", "assay_type": "cell-based, human", "details": "added to FA", "experimental": "as §4, §5, §1"}},
  "data": [
    {"smiles": "CN(C)C(=N)N=C(N)N", "note": "[metformin]", "values": [
      {"measurement": "intracellular triglyceride concentration", "setting": "[1]", "value": "not reduced"},
      {"measurement": "accumulation of intracellular lipid droplets / lipid accumulation", "setting": "[2]", "value": "slightly reduced"}
    ]},
    {"smiles": "C[C@H]1COc2c(N3CCN(C)CC3)c(F)cc3c(=O)c(C(=O)O)cn1c23", "note": "[levofloxacin]", "values": [
      {"measurement": "Cmax", "setting": "[3]", "value": 23.8, "unit": "µM"},
      {"measurement": "cytotoxicity at 6 days, 100 μM", "setting": "in vitro", "value": 36, "unit": "%"}
    ]},
    {"smiles": "COc1ccc(-c2ccc3c(N4CCOCC4)nc(N4C[C@@H](C)O[C@@H](C)C4)nc3n2)cc1CO", "note": "[KU-0063794]", "values": [
      {"measurement": "phenotype of hepatic steatosis and lipid accumulation in drug screening", "setting": "[4]", "value": "capable of restoring lipid accumulation"}
    ]},
    {"smiles": "Cc1c(C)c2c(c(C)c1O)CCC(C)(COc1ccc(CC3SC(=O)NC3=O)cc1)O2", "note": "(stereo not drawn) [troglitazone, Troglitazone]", "values": [
      {"measurement": "toxic response, 2D MH versus organoids", "setting": "[5]", "value": "different in 2D and 3D models"}
    ]},
    {"smiles": "CO[C@H]1C[C@@H]2CC[C@@H](C)[C@@](O)(O2)C(=O)C(=O)N2CCCC[C@H]2C(=O)O[C@H]([C@H](C)C[C@@H]2CC[C@@H](OCCO)[C@H](OC)C2)CC(=O)[C@H](C)/C=C(\\C)[C@@H](O)[C@@H](OC)C(=O)[C@H](C)C[C@H](C)/C=C/C=C/C=C/1C", "note": "[Everolimus]", "values": [
      {"measurement": "phenotype of hepatic steatosis and lipid accumulation in drug screening", "setting": "[4]", "value": "capable of restoring lipid accumulation"}
    ]},
    {"smiles": "C[C@]12CC[C@H]3[C@@H](CCC4=CC(=O)CC[C@@]43C)[C@@H]1CC[C@@H]2O", "note": "[testosterone]", "values": [
      {"measurement": "metabolism to 6β-hydroxytestosterone", "setting": "CYP3A4", "value": "directly hydroxylated"}
    ]},
    {"smiles": "O=C(CCCCCN1C(=O)c2cccc3cccc(c23)C1=O)NO", "note": "[Scriptaid]", "values": [
      {"measurement": "phenotype of hepatic steatosis and lipid accumulation in drug screening", "setting": "[4]", "value": "capable of restoring lipid accumulation"}
    ]},
    {"smiles": "CC(=O)Nc1ccc(C(=O)Nc2ccccc2N)cc1", "note": "[Tacedinalin, Tacedinaline]", "values": [
      {"measurement": "phenotype of hepatic steatosis and lipid accumulation in drug screening", "setting": "[4]", "value": "capable of restoring lipid accumulation"}
    ]},
    {"smiles": "N[C@@H]1[C@H]2CN(c3nc4c(cc3F)c(=O)c(C(=O)O)cn4-c3ccc(F)cc3F)C[C@@H]12", "note": "[trovafloxacin]", "values": [
      {"measurement": "Cmax", "setting": "[3]", "value": 4.1, "unit": "µM"},
      {"measurement": "OCR (mitochondrial respiration)", "setting": "[6]", "value": "reduction of OCR"},
      {"measurement": "number of cells", "setting": "2D MH", "value": "little change"},
      {"measurement": "reported side effect", "setting": "[7]", "value": "patient death due to liver failure"}
    ]},
    {"smiles": "CC(=O)Nc1ccc(O)cc1", "note": "[APAP, acetaminophen]", "values": [
      {"measurement": "reactive oxygen species (ROS)", "setting": "[8]; 20 mM APAP, dihydroethidium staining", "value": "increased"},
      {"measurement": "expression amounts of Ki67, E-cadherin, and Tom20", "setting": "[8]; 20 mM APAP, immunofluorescence", "value": "reduced"},
      {"measurement": "expression of HMGB1", "setting": "[8]; 20 mM APAP, immunofluorescence, migration to the cytoplasm", "value": "reduced"},
      {"measurement": "organoid morphology", "setting": "[8]; 20 mM daily for 7 days", "value": "severe morphological damage"},
      {"measurement": "organoid morphology and size after recovery", "setting": "[8]; 20 mM for 60 hours from day 2, new HM medium on day 4.5", "value": "recovered on day 7"},
      {"measurement": "expression of LC3B", "setting": "[8]; APAP for 60 hours versus APAP for 5 days", "value": "more strongly induced"},
      {"measurement": "expression of IL-10", "setting": "[8]; APAP for 60 hours, then new HM medium on day 4.5, qRT-PCR", "value": "significantly increased"},
      {"measurement": "expressions of proinflammatory mediators (IL-1β, IL-6, IL-8) and pathological mediators (TNF-α and FasL)", "setting": "[8]; APAP for 7 days, qRT-PCR", "value": "strongly induced"}
    ]},
    {"smiles": "C[N+](C)(C)C[C@H](O)CC(=O)[O-]", "note": "[L-carnitine]", "values": [
      {"measurement": "accumulation of intracellular lipid droplets / lipid accumulation", "setting": "[2]", "value": "significantly reduced"},
      {"measurement": "mitochondrial respiration measured by OCR", "setting": "[9]", "value": "recovered"}
    ]},
    {"smiles": "CCOC(=O)[C@@]1(CCCCCCOc2ccc(Cl)cc2)CO1", "note": "[etomoxir]", "values": [
      {"measurement": "intracellular triglyceride concentration", "setting": "[1]", "value": "significantly increased"},
      {"measurement": "accumulation of intracellular lipid droplets / lipid accumulation", "setting": "[2]", "value": "significant accumulation"},
      {"measurement": "mitochondrial respiration measured by OCR", "setting": "[9]", "value": "significantly reduced"}
    ]}
  ]
}
